Tests used:
barnyardgrass [1] = test: Test A preemergence; type: in vivo, Echinochloa crus-galli
Procedure, shortened: (§1)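 Scoring: eye-based comparison with untreated controls, 0 for no effect through 100 for complete control, at about day 10. Treatments: directed soil spray preemergence; foliar spray postemergence on 2–10 cm plants at the one- to two-leaf stage. Medium: loam soil with sand.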

large (Lg) crabgrass [2] = test: Test A preemergence; type: in vivo, Digitaria sanguinalis
Procedure, shortened: as §1

giant foxtail [3] = test: Test A preemergence; type: in vivo, Setaria faberii
Procedure, shortened: as §1

morningglory [4] = test: Test A preemergence; type: in vivo, Ipomoea spp.
Procedure, shortened: as §1

pigweed [5] = test: Test A preemergence; type: in vivo, Amaranthus retroflexus
Procedure, shortened: as §1

velvetleaf [6] = test: Test A preemergence; type: in vivo, Abutilon theophrasti
Procedure, shortened: as §1

wheat [7] = test: Test A preemergence; type: in vivo, Triticum aestivum
Procedure, shortened: as §1

corn [8] = test: Test A preemergence; type: in vivo, Zea mays
Procedure, shortened: as §1

barnyardgrass [9] = test: Test A postemergence; type: in vivo, Echinochloa crus-galli
Procedure, shortened: as §1

large (Lg) crabgrass [10] = test: Test A postemergence; type: in vivo, Digitaria sanguinalis
Procedure, shortened: as §1

giant foxtail [11] = test: Test A postemergence; type: in vivo, Setaria faberii
Procedure, shortened: as §1

morningglory [12] = test: Test A postemergence; type: in vivo, Ipomoea spp.
Procedure, shortened: as §1

pigweed [13] = test: Test A postemergence; type: in vivo, Amaranthus retroflexus
Procedure, shortened: as §1

velvetleaf [14] = test: Test A postemergence; type: in vivo, Abutilon theophrasti
Procedure, shortened: as §1

wheat [15] = test: Test A postemergence; type: in vivo, Triticum aestivum
Procedure, shortened: as §1

corn [16] = test: Test A postemergence; type: in vivo, Zea mays
Procedure, shortened: as §1

rice = test: Test B flooded paddy test; type: in vivo, Oryza sativa; conditions: Flood, 250 g ai/ha; 0 to 100 scale where 0 is no effect and 100 is complete control
Procedure, shortened: (§2)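 Compound added straight to paddy water, with pots kept flooded 3 cm above soil, on plants grown to the 2-leaf stage. Visual scoring 0-100 (100 = complete control) against untreated controls after 13 to 15 greenhouse days.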

sedge, umbrella = test: Test B flooded paddy test; type: in vivo, Cyperus difformis; conditions: Flood, 250 g ai/ha; 0 to 100 scale where 0 is no effect and 100 is complete control
Procedure, shortened: as §2

Heteranthera limosa = test: Test B flooded paddy test; type: in vivo; conditions: Flood, 250 g ai/ha; 0 to 100 scale where 0 is no effect and 100 is complete control
Procedure, shortened: as §2

barnyardgrass [17] = test: Test B flooded paddy test; type: in vivo, Echinochloa crus-galli; conditions: Flood, 250 g ai/ha; 0 to 100 scale where 0 is no effect and 100 is complete control
Procedure, shortened: as §2

[18] = 125 g ai/ha, 0 to 100 scale where 0 is no effect and 100 is complete control
[19] = 500 g ai/ha, 0 to 100 scale, 0 no effect, 100 complete control, approx. 10 days
[20] = 500 g ai/ha, 0 to 100 scale, 0 no effect, 100 complete control
[21] = 500 g ai/ha, 0 to 100 scale where 0 is no effect and 100 is complete control
[22] = 125 g ai/ha, 0 to 100 scale, 0 no effect, 100 complete control

FC(F)(F)c1ccn(-c2ccccc2Oc2ncc(Br)cn2)n1 [Compound 1]
Barnyardgrass plant response rating (barnyardgrass [1]; [18]): 20
Barnyardgrass plant response rating (barnyardgrass [1]; [19]): 70
Crabgrass, Large plant response rating (large (Lg) crabgrass [2]; [18]): 50
Crabgrass, Large plant response rating (large (Lg) crabgrass [2]; [19]): 100
Foxtail, Giant plant response rating (giant foxtail [3]; [18]): 60
Foxtail, Giant plant response rating (giant foxtail [3]; [19]): 100
Morningglory plant response rating (morningglory [4]; [18]): 0
Morningglory plant response rating (morningglory [4]; [19]): 0
Pigweed plant response rating (pigweed [5]; [18]): 60
Pigweed plant response rating (pigweed [5]; [19]): 100
Velvetleaf plant response rating (velvetleaf [6]; [18]): 0
Velvetleaf plant response rating (velvetleaf [6]; [19]): 20
Wheat plant response rating (wheat [7]; [18]): 0
Wheat plant response rating (wheat [7]; [19]): 0
Corn plant response rating (corn [8]; [18]): 0
Corn plant response rating (corn [8]; [19]): 0
Plant response rating, Barnyardgrass (barnyardgrass [9]; [18]): 10
Plant response rating, Barnyardgrass (barnyardgrass [9]; [20]): 30
Plant response rating, Crabgrass, Large (large (Lg) crabgrass [10]; [18]): 20
Plant response rating, Crabgrass, Large (large (Lg) crabgrass [10]; [20]): 50
Plant response rating, Foxtail, Giant (giant foxtail [11]; [18]): 10
Plant response rating, Foxtail, Giant (giant foxtail [11]; [20]): 60
Plant response rating, Morningglory (morningglory [12]; [18]): 0
Plant response rating, Morningglory (morningglory [12]; [20]): 20
Plant response rating, Pigweed (pigweed [13]; [18]): 50
Plant response rating, Pigweed (pigweed [13]; [20]): 100
Plant response rating, Velvetleaf (velvetleaf [14]; [18]): 20
Plant response rating, Velvetleaf (velvetleaf [14]; [20]): 70
Plant response rating, Wheat (wheat [15]; [18]): 0
Plant response rating, Wheat (wheat [15]; [20]): 0
Plant response rating, Corn (corn [16]; [18]): 0
Plant response rating, Corn (corn [16]; [20]): 10
Plant response rating, Rice (rice): 0
Plant response rating, Sedge, Umbrella (sedge, umbrella): 0
Plant response rating, Ducksalad (Heteranthera limosa): 0
Plant response rating, Barnyardgrass (barnyardgrass [17]): 0

Clc1cnc(Oc2cccc(-c3cccnc3)c2-n2cc(Br)cn2)nc1 [Compound 290]
Barnyardgrass plant response rating (0 to 100 scale, 0 is no effect, 100 is complete control) (barnyardgrass [1]; 125 g ai/ha): 0
Barnyardgrass plant response rating (barnyardgrass [1]; [21]): 0
Crabgrass, Large plant response rating (0 to 100 scale) (large (Lg) crabgrass [2]; 125 g ai/ha): 0
Crabgrass, Large plant response rating (large (Lg) crabgrass [2]; [21]): 10
Foxtail, Giant plant response rating (0 to 100 scale) (giant foxtail [3]; 125 g ai/ha): 0
Foxtail, Giant plant response rating (giant foxtail [3]; [21]): 10
Morningglory plant response rating (0 to 100 scale) (morningglory [4]; 125 g ai/ha): 0
Morningglory plant response rating (morningglory [4]; [21]): 0
Pigweed plant response rating (0 to 100 scale) (pigweed [5]; 125 g ai/ha): 0
Pigweed plant response rating (pigweed [5]; [21]): 0
Velvetleaf plant response rating (0 to 100 scale) (velvetleaf [6]; 125 g ai/ha): 0
Velvetleaf plant response rating (velvetleaf [6]; [21]): 0
Wheat plant response rating (0 to 100 scale) (wheat [7]; 125 g ai/ha): 0
Wheat plant response rating (wheat [7]; [21]): 0
Corn plant response rating (0 to 100 scale) (corn [8]; 125 g ai/ha): 0
Corn plant response rating (corn [8]; [21]): 0
Plant response rating, Barnyardgrass (barnyardgrass [9]; [22]): 0
Plant response rating, Barnyardgrass (barnyardgrass [9]; [21]): 0
Plant response rating, Crabgrass, Large (large (Lg) crabgrass [10]; [22]): 0
Plant response rating, Crabgrass, Large (large (Lg) crabgrass [10]; [21]): 10
Plant response rating, Foxtail, Giant (giant foxtail [11]; [22]): 0
Plant response rating, Foxtail, Giant (giant foxtail [11]; [21]): 10
Plant response rating, Morningglory (morningglory [12]; [22]): 0
Plant response rating, Morningglory (morningglory [12]; [21]): 10
Plant response rating, Pigweed (pigweed [13]; [22]): 10
Plant response rating, Pigweed (pigweed [13]; [21]): 20
Plant response rating, Velvetleaf (velvetleaf [14]; [22]): 10
Plant response rating, Velvetleaf (velvetleaf [14]; [21]): 30
Plant response rating, Wheat (wheat [15]; [22]): 0
Plant response rating, Wheat (wheat [15]; [21]): 0
Plant response rating, Corn (corn [16]; [22]): 0
Plant response rating, Corn (corn [16]; [21]): 10
Plant response rating, Rice (rice): 0
Plant response rating, Sedge, Umbrella (sedge, umbrella): 0
Plant response rating, Ducksalad (Heteranthera limosa): 0
Plant response rating, Barnyardgrass (barnyardgrass [17]): 0

O=Cc1cccc(Oc2ncc(F)cn2)c1-n1cc(C(F)(F)F)cn1 [Compound 162]
Plant response rating, Barnyardgrass (barnyardgrass [1]; [18]): 10
Barnyardgrass plant response rating (barnyardgrass [1]; [21]): 50
Plant response rating, Crabgrass, Large (large (Lg) crabgrass [2]; [18]): 0
Crabgrass, Large plant response rating (large (Lg) crabgrass [2]; [21]): 10
Plant response rating, Foxtail, Giant (giant foxtail [3]; [18]): 0
Foxtail, Giant plant response rating (giant foxtail [3]; [21]): 0
Morningglory plant response rating (0 to 100 scale) (morningglory [4]; 125 g ai/ha): 0
Morningglory plant response rating (morningglory [4]; [21]): 0
Pigweed plant response rating (0 to 100 scale) (pigweed [5]; 125 g ai/ha): 100
Pigweed plant response rating (pigweed [5]; [21]): 100
Velvetleaf plant response rating (0 to 100 scale) (velvetleaf [6]; 125 g ai/ha): 10
Velvetleaf plant response rating (velvetleaf [6]; [21]): 50
Wheat plant response rating (0 to 100 scale) (wheat [7]; 125 g ai/ha): 0
Wheat plant response rating (wheat [7]; [21]): 0
Plant response rating, Corn (corn [8]; [18]): 0
Corn plant response rating (corn [8]; [21]): 0
Barnyardgrass plant response rating (barnyardgrass [9]; [18]): 0
Plant response rating, Barnyardgrass (barnyardgrass [9]; [21]): 10
Crabgrass, Large plant response rating (large (Lg) crabgrass [10]; [18]): 0
Plant response rating, Crabgrass, Large (large (Lg) crabgrass [10]; [21]): 10
Foxtail, Giant plant response rating (giant foxtail [11]; [18]): 0
Plant response rating, Foxtail, Giant (giant foxtail [11]; [21]): 0
Morningglory plant response rating (morningglory [12]; [18]): 0
Plant response rating, Morningglory (morningglory [12]; [21]): 10
Pigweed plant response rating (pigweed [13]; [18]): 30
Plant response rating, Pigweed (pigweed [13]; [21]): 70
Velvetleaf plant response rating (velvetleaf [14]; [18]): 10
Plant response rating, Velvetleaf (velvetleaf [14]; [21]): 50
Wheat plant response rating (wheat [15]; [18]): 0
Plant response rating, Wheat (wheat [15]; [21]): 0
Corn plant response rating (corn [16]; [18]): 0
Plant response rating, Corn (corn [16]; [21]): 10
Plant response rating, Rice (rice): 0
Plant response rating, Sedge, Umbrella (sedge, umbrella): 40
Plant response rating, Ducksalad (Heteranthera limosa): 35
Plant response rating, Barnyardgrass (barnyardgrass [17]): 0

CNN=Cc1cccc(Oc2ncc(Cl)cn2)c1-n1cc(Br)cn1 [Compound 289]
Barnyardgrass plant response rating (0 to 100 scale, 0 is no effect, 100 is complete control) (barnyardgrass [1]; 125 g ai/ha): 0
Barnyardgrass plant response rating (barnyardgrass [1]; [21]): 20
Crabgrass, Large plant response rating (0 to 100 scale) (large (Lg) crabgrass [2]; 125 g ai/ha): 0
Crabgrass, Large plant response rating (large (Lg) crabgrass [2]; [21]): 10
Foxtail, Giant plant response rating (0 to 100 scale) (giant foxtail [3]; 125 g ai/ha): 0
Foxtail, Giant plant response rating (giant foxtail [3]; [21]): 10
Morningglory plant response rating (0 to 100 scale) (morningglory [4]; 125 g ai/ha): 0
Morningglory plant response rating (morningglory [4]; [21]): 0
Pigweed plant response rating (0 to 100 scale) (pigweed [5]; 125 g ai/ha): 20
Pigweed plant response rating (pigweed [5]; [21]): 100
Velvetleaf plant response rating (0 to 100 scale) (velvetleaf [6]; 125 g ai/ha): 0
Velvetleaf plant response rating (velvetleaf [6]; [21]): 10
Wheat plant response rating (0 to 100 scale) (wheat [7]; 125 g ai/ha): 0
Wheat plant response rating (wheat [7]; [21]): 0
Corn plant response rating (0 to 100 scale) (corn [8]; 125 g ai/ha): 0
Corn plant response rating (corn [8]; [21]): 0
Plant response rating, Barnyardgrass (barnyardgrass [9]; [22]): 0
Plant response rating, Barnyardgrass (barnyardgrass [9]; [21]): 20
Plant response rating, Crabgrass, Large (large (Lg) crabgrass [10]; [22]): 0
Plant response rating, Crabgrass, Large (large (Lg) crabgrass [10]; [21]): 20
Plant response rating, Foxtail, Giant (giant foxtail [11]; [22]): 0
Plant response rating, Foxtail, Giant (giant foxtail [11]; [21]): 30
Plant response rating, Morningglory (morningglory [12]; [22]): 20
Plant response rating, Morningglory (morningglory [12]; [21]): 50
Plant response rating, Pigweed (pigweed [13]; [22]): 100
Plant response rating, Pigweed (pigweed [13]; [21]): 100
Plant response rating, Velvetleaf (velvetleaf [14]; [22]): 10
Plant response rating, Velvetleaf (velvetleaf [14]; [21]): 40
Plant response rating, Wheat (wheat [15]; [22]): 0
Plant response rating, Wheat (wheat [15]; [21]): 0
Plant response rating, Corn (corn [16]; [22]): 0
Plant response rating, Corn (corn [16]; [21]): 10
Plant response rating, Rice (rice): 0
Plant response rating, Sedge, Umbrella (sedge, umbrella): 0
Plant response rating, Ducksalad (Heteranthera limosa): 0
Plant response rating, Barnyardgrass (barnyardgrass [17]): 0

From patent US9695155B2, “Herbicidal substituted pyrimidinyloxy benzene compounds” (E. I. DU PONT DE NEMOURS AND COMPANY, priority 2013, dated 2017)
